Test: Part 1 SAD plasma pharmacokinetics of KAR5585 and KAR5417 after a single oral dose of KAR5585 (fasting; fed food effect)
Conditions: for increase in mean AUC0-24 / increase in mean AUC0-inf: 100 mg to 700 mg single dose; for increase in AUC0-24 / increase in AUC0-inf: 700 mg to 2000 mg single dose; for AUC0-inf Geometric Mean / AUC0-tau Geometric Mean / Cmax Geometric Mean: 400 mg KAR5585 single oral dose
[1] = arithmetic mean, plasma KAR5417 after single oral 100 mg KAR5585, fasted, Cohort 1
[2] = arithmetic mean, plasma KAR5417 after single oral 700 mg KAR5585, fasted, Cohort 4
[3] = arithmetic mean, plasma KAR5417 after single oral 1200 mg KAR5585, fasted, Cohort 5
[4] = geometric mean, plasma KAR5417 after single oral 200 mg KAR5585, fasted, Cohort 2
[5] = geometric mean, plasma KAR5417 after single oral 400 mg KAR5585, fed, Cohort 3B
[6] = geometric mean, plasma KAR5417 after single oral 1200 mg KAR5585, fasted, Cohort 5
[7] = geometric mean, plasma KAR5417 after single oral 2000 mg KAR5585, fasted, Cohort 6
[8] = single 1200 mg KAR5585, fasting
[9] = KAR5585 100 mg single oral dose, fasted, Cohort 1
[10] = KAR5585 200 mg single oral dose, fasted, Cohort 2
[11] = KAR5585 400 mg single oral dose, fasted, Cohort 3A
[12] = KAR5585 400 mg single oral dose, fed, Cohort 3B
[13] = KAR5585 700 mg single oral dose, fasted, Cohort 4
[14] = KAR5585 1200 mg single oral dose, fasted, Cohort 5
[15] = KAR5585 2000 mg single oral dose, fasted, Cohort 6

Protocol: Food effect was to be evaluated in Part 1, Period 2. Part 2 was permitted to begin before Part 1 was completed and, in each part, the data from each dose Cohort were to be reviewed for safety before the next dose Cohort was enrolled.
Part 1 had 6 Cohorts of 12 subjects each (for a total of 72 subjects) and Part 2 had 4 Cohorts of 12 subjects each (for a total of 48 subjects). In Part 1, the 12 subjects in Cohort 3 (400 mg) were studied twice, once under fasting conditions (Period 1) and once under fed conditions (Period 2) for food-effect assessment.
Pharmacokinetic data were to be summarized descriptively.

Nc1nc(O[C@H](c2ccc(Cl)cc2-c2ccccc2)C(F)(F)F)cc(N2CCC3(CC2)CN[C@H](C(=O)O)C3)n1 [KAR5417, (S)-8-(2-amino-6-((R)-1-(5-chloro-[1,1′-biphenyl]-2-yl)-2,2,2-trifluoroeth-oxy)pyrimidin-4-yl)-2,8-diazaspiro[4.5]decane-3-carboxylic acid]
increase in mean Cmax (100 mg (Cohort 1) to 700 mg (Cohort 4), 7-fold increase in dose): 7.27 fold | increase in mean AUC0-24 (7-fold increase in dose): 6.3 fold | increase in mean AUC0-inf (7-fold increase in dose): 6.8 fold | exposure (AUC0-tau and AUC0-inf) under fed relative to fasting conditions (400 mg KAR5585 single dose): approximately 2 fold | increase in Cmax, fed relative to fasting (400 mg KAR5585 single dose): 1.8 fold | increase in mean AUC0-inf, fed relative to fasting (400 mg KAR5585 single dose): 1.8 fold | peak exposure (Cmax) higher under fed relative to fasting conditions (400 mg KAR5585 single dose): approximately 1.87 fold | peak mean concentrations higher under fed relative to fasting conditions (400 mg KAR5585 single dose): approximately 177% | tmax (400 mg KAR5585 single dose, fasted): 4 hour postdose | increase in mean Cmax (700 mg (Cohort 4) to 2000 mg (Cohort 6), 2.86-fold increase in dose): 1.38 fold | increase in AUC0-24 (2.86-fold increase in dose): 1.7 fold | increase in AUC0-inf (2.86-fold increase in dose): 1.81 fold | AUC0-inf Geometric Mean (Cohort 3A (Fasting)): 3280 ng·h/mL | AUC0-tau Geometric Mean (Cohort 3A (Fasting)): 3120 ng·h/mL | Cmax Geometric Mean (Cohort 3A (Fasting)): 444 ng/mL | Cmax Geometric LS Mean Ratio (Cohort 3B (Fed) versus Cohort 3A (Fasting), 400 mg KAR5585): 1.87 | AUC0-inf Geometric Mean (Cohort 3B (Fed)): 6630 ng·h/mL | AUC0-tau Geometric Mean (Cohort 3B (Fed)): 6360 ng·h/mL | Cmax Geometric Mean (Cohort 3B (Fed)): 831 ng/mL | time by which all subjects had measurable concentrations (Part 1 SAD): ≤ 0.25 hours postdose | plasma concentrations relative to plasma concentrations of KAR5585 (Part 1 SAD, fasting): approximately 10 fold | AUC0-12 [1]: 704 ng·h/mL | AUC0-∞ [1]: 886 ng·h/mL | t1/2 [1]: 4.67 h | AUC0-12 [2]: 4350 ng·h/mL | AUC0-24 [2]: 5310 ng·h/mL | AUC0-12 [3]: 5350 ng·h/mL | Cmax [3]: 896 ng/mL | AUC0-12 (arithmetic mean, plasma KAR5417 after single oral 2000 mg KAR5585, fasted, Cohort 6): 6910 ng·h/mL | AUC0-24 [4]: 940 ng·h/mL | t1/2 [4]: 5.29 h | AUC0-12 [5]: 4170 ng·h/mL | AUC0-24 [5]: 5370 ng·h/mL | AUC0-tau [5]: 6360 ng·h/mL | AUC0-∞ [5]: 6630 ng·h/mL | Cmax [5]: 831 ng/mL | t1/2 [5]: 19.8 h | AUC0-12 (geometric mean, plasma KAR5417 after single oral 700 mg KAR5585, fasted, Cohort 4): 3050 ng·h/mL | AUC0-tau [6]: 6580 ng·h/mL | AUC0-∞ [6]: 6880 ng·h/mL | Cmax [6]: 764 ng/mL | t1/2 [6]: 14.0 h | AUC0-12 [7]: 6550 ng·h/mL | Cmax [7]: 1030 ng/mL | t1/2 [7]: 22.1 h | tmax (median, plasma KAR5417 after single oral 100 mg KAR5585, fasted, Cohort 1): 4.00 h | tmax (median, plasma KAR5417 after single oral 400 mg KAR5585, fed, Cohort 3B): 4.00 h | tmax (median, plasma KAR5417 after single oral 700 mg KAR5585, fasted, Cohort 4): 4.00 h | time up to which concentrations remained above the LLOQ (single 100 mg KAR5585, fasting): up to 12 hours | mean apparent terminal (elimination) half-life (single 100 mg dose of KAR5585): 4.67 h | time up to which concentrations remained above the LLOQ (single 200 mg KAR5585, fasting): ≤ 24 h | time up to which concentrations remained above the LLOQ (single 400 mg KAR5585, fasting): ≤ 36 h | time up to which concentrations remained above the LLOQ (single 700 mg KAR5585, fasting): ≤ 48 h | time up to which concentrations remained above the LLOQ [8]: ≤ 48 h | time up to which concentrations remained above the LLOQ (single 2000 mg KAR5585, fasting): ≤ 72 h | elimination half-life (single dose 400 mg KAR5585, Part 1 Cohort 3B): 20.5 h

CCOC(=O)[C@@H]1CC2(CCN(c3cc(O[C@H](c4ccc(Cl)cc4-c4ccccc4)C(F)(F)F)nc(N)n3)CC2)CN1 [KAR5585, (S)-ethyl 8-(2-amino-6-((R)-1-(5-chloro-[1,1′-biphenyl]-2-yl)-2,2,2-trifluoroethoxy)pyrimidin-4-yl)-2,8-diazaspiro[4.5]decane-3-carboxylate]
increase in mean AUC0-24 (7-fold increase in dose): 8.7 fold | increase in mean AUC0-inf (7-fold increase in dose): 8.8 fold | increase in AUC0-24 (2.86-fold increase in dose): 1.86 fold | increase in AUC0-inf (2.86-fold increase in dose): 1.78 fold | AUC0-inf Geometric Mean (Cohort 3A (Fasting)): 288 ng·h/mL | AUC0-tau Geometric Mean (Cohort 3A (Fasting)): 176 ng·h/mL | Cmax Geometric Mean (Cohort 3A (Fasting)): 42 ng/mL | AUC0-inf Geometric Mean (Cohort 3B (Fed)): 903 ng·h/mL | AUC0-tau Geometric Mean (Cohort 3B (Fed)): 854 ng·h/mL | Cmax Geometric Mean (Cohort 3B (Fed)): 165 ng/mL | AUC0-12 (Mean) [9]: 48.1 ng·h/mL | AUC0-24 (Geo. Mean) [9]: 47.5 ng·h/mL | AUC0-∞ (Geo. Mean) [9]: 47.5 ng·h/mL | Cmax/D Geo. Mean [9]: 0.132 (ng/mL)/mg | Cmax/D Mean [9]: 0.139 (ng/mL)/mg | V2/F Geo. Mean [9]: 5190 L | V2/F Mean [9]: 5680 L | t1 Geo. Mean [9]: 1.71 h | t1 Mean [9]: 1.89 h | AUC0-12 (Geo. Mean) [10]: 83.3 ng·h/mL | AUC0-24 (Geo. Mean) [10]: 93.4 ng·h/mL | AUC0-∞ (Geo. Mean) [10]: 95.3 ng·h/mL | Cmax/D Geo. Mean [10]: 0.0875 (ng/mL)/mg | Cmax/D Mean [10]: 0.0961 (ng/mL)/mg | V2/F Geo. Mean [10]: 9610 L | V2/F Mean [10]: 10300 L | t1 Geo. Mean [10]: 3.17 h | t1 Mean [10]: 3.63 h | AUC0-24 (Geo. Mean) [11]: 283 ng·h/mL | AUC0-∞ (Geo. Mean) [11]: 288 ng·h/mL | Cmax/D Geo. Mean [11]: 0.105 (ng/mL)/mg | Cmax/D Mean [11]: 0.132 (ng/mL)/mg | V2/F Geo. Mean [11]: 8100 L | V2/F Mean [11]: 8330 L | t1 Geo. Mean [11]: 4.04 h | t1 Mean [11]: 4.08 h | AUC0-24 (Geo. Mean) [12]: 876 ng·h/mL | AUC0-tau Geo. Mean [12]: 854 ng·h/mL | AUC0-∞ (Geo. Mean) [12]: 903 ng·h/mL | Cmax (Geo. Mean) [12]: 165 ng/mL | Cmax/D Geo. Mean [12]: 0.413 (ng/mL)/mg | Cmax/D Mean [12]: 0.422 (ng/mL)/mg | V2/F Geo. Mean [12]: 2730 L | V2/F Mean [12]: 2780 L | t1 Geo. Mean [12]: 4.26 h | t1 Mean [12]: 4.45 h | AUC0-12 (Mean) [13]: 392 ng·h/mL | Cmax (Geo. Mean) [13]: 95.2 ng/mL | Cmax/D Geo. Mean [13]: 0.136 (ng/mL)/mg | Cmax/D Mean [13]: 0.142 (ng/mL)/mg | V2/F Geo. Mean [13]: 8390 L | V2/F Mean [13]: 9120 L | t1 Geo. Mean [13]: 3.42 h | t1 Mean [13]: 3.46 h | tmax (Median) [13]: 1.75 h | AUC0-12 (Geo. Mean) [14]: 356 ng·h/mL | AUC0-12 (Mean) [14]: 402 ng·h/mL | AUC0-24 (Geo. Mean) [14]: 400 ng·h/mL | AUC0-tau Mean [14]: 364 ng·h/mL | AUC0-∞ (Geo. Mean) [14]: 406 ng·h/mL | Cmax/D Geo. Mean [14]: 0.0568 (ng/mL)/mg | Cmax/D Mean [14]: 0.0692 (ng/mL)/mg | V2/F Geo. Mean [14]: 14500 L | V2/F Mean [14]: 16900 L | t1 Geo. Mean [14]: 3.40 h | t1 Mean [14]: 3.58 h | Cmax (Geo. Mean) [15]: 95.1 ng/mL | Cmax (Mean) [15]: 104 ng/mL | Cmax/D Geo. Mean [15]: 0.0475 (ng/mL)/mg | Cmax/D Mean [15]: 0.0522 (ng/mL)/mg | V2/F Geo. Mean [15]: 20600 L | V2/F Mean [15]: 25100 L | t1 Geo. Mean [15]: 4.76 h | t1 Mean [15]: 4.84 h | tmax (Median) [15]: 2.00 h | time up to which concentrations remained above the LLOQ (single 100 mg KAR5585, fasting): up to 4 hours | time up to which concentrations remained above the LLOQ (single 200 mg KAR5585, fasting): up to 12 hours | time up to which concentrations remained above the LLOQ (single 400 mg KAR5585, fasting): up to 12 hours | time up to which concentrations remained above the LLOQ (single 700 mg KAR5585, fasting): up to 12 hours | time up to which concentrations remained above the LLOQ [8]: up to 12 hours

— patent US20200237759A1, “DOSAGE REGIME AND METHOD FOR TREATING PULMONARY ARTERIAL HYPERTENSION” (Altavant Sciences GmbH, priority 2019, published 2020)
